Assay results: patent US20020107193A1, “Therapeutic uses for IP3 receptor-mediated calcium channel modulators” (priority 2000, published 2002)

Columns and labels:
NF-κB [1] = experiment: Cell-free EMSA of NF-κB binding activity in brain cortex cytoplasmic fraction; format: biochemical, rat; settings: 1 h; calcium 1 μM to 10 mM; 10 μM BAPTA-AM alone or with 10 μM calcium
Protocol: (§1) Total cell extracts were prepared as described (Baeuerle and Baltimore, 1988, Cell 53:211-217). Briefly, cells were harvested, washed twice with ice-cold PBS and lysed for 30 min at 4° C. in Totex buffer (20 mM HEPES, pH 7.9, 350 mM NaC1, 20% glycerol, 1% NP-40, 1 mM MgC12, 0.5 mM EDTA, 0.1 mM EGTA, 5 mM DTT, 0.1% PMSF, 1% aprotinin, 4 μg/ml leupeptin). Samples were centrifuged at 14,000× g for 10 min and aliquots of supernatant were collected and stored at −70° C. until taken for assay. The protein content of the extract (supernatant) was measured by Bradford method (BIO-RAD Laboratories, Ercules, Calif., USA). […]
(§2) After 20 min at room temperature, reaction products were separated on a 7% non-denaturing polyacrylamide gel. […] Radioactivity of dried gels was detected by exposure to Kodak X-Omat film and images on the developed film were scanned into a computer using a UMAX 1200s scanner. […]

IP3 receptor = settings: Gafni et al., 1997; cited from earlier work
CREB [2] = experiment: Cell-free EMSA of CREB binding activity in brain cortex cytoplasmic fraction; format: biochemical, rat; settings: calcium 10 μM, 100 μM and 1 mM, 1 h
Protocol: as §1, §2

[3] = system: IP3 receptors on microsomes; experiment: Microsome extract (MSE) effect on cytoplasmic NF-κB binding activity; format: biochemical, rat; settings: direct activation of IP3 receptors on microsomes with IP3
Protocol: Cerebral cortices from adult female Sprague-Dawley rats were homogenized (20 strokes at 300 rpm) with a Teflon homogenizer in ice-cold buffer containing 1 mM EDTA, 0.32 M sucrose, 0.1 mM dithiothreitol and 1 mM HEPES as described previously (Chen et al., 1998, Diabetes 47:874-81) and cytoplasmic and microsome fractions were isolated by differential centrifugation. Briefly, tissue fragments and cellular debris were removed by centrifugation at 500 g for 10 min and supernatants were centrifuged at 20,000 g for 20 min to pellet intact mitochondria and nuclei. The supernatant was then centrifuged at 100,000 g for 1 h in order to obtain the cytoplasmic fraction and the microsomal pellet enriched in endoplasmic reticulum and golgi membranes. Microsome extracts (MSE) were prepared by suspending microsomes in 1:100 v/v ice-cold buffer and centrifuging at 100,000× g for 1 hr. Microsomes were then re-suspended in 1:2 v/v volume buffer and treated as described below. At the end of the treatment, the suspension was centrifuged at 100,000 g for 1 h, and supernatants were used as MSE. For experiments involving incubation of MSE with cytoplasmic extract, 3 μl of MSE were added to 10 μl cytoplasmic extract and mixtures were incubated at room temperature for 1 h.
[…] After 1 h at room temperature, samples were examined for NF-κB binding activity.
Indeed, the role calcium plays in this paradigm seems to be as an intraluminal signal.

NF-κB [4] = experiment: EMSA of NF-κB binding activity in cultured primary cortical neurons; format: cell-based, rat; settings: 6 h; for induction of NF-κB binding activity by the agent alone: cortical neurons, 100 ng/ml TNFα, 100 nM Tg or 20 μM glutamate
Protocol: Cerebral cortices were removed from embryonic day 18 Sprague-Dawley rats (Harlan, Indianapolis, Ind.). Cells were dissociated as described previously (Mattson et al., 1995, J. Neurochem. 65:1740-1751.) and were seeded into polyethyleneimine-coated 60 mm culture dishes containing Eagle's Minimum Essential Medium supplemented with 26 mM NaHCO3, 40 mM glucose, 20 mM KCl, 1 mM sodium pyruvate, 10% (v/v) heat-inactivated fetal bovine serum (Sigma, St. Louis, Mo.), and 0.001% gentamycin sulfate. After a 3-5 h incubation period to allow for cell attachment, the medium was replaced with 2 ml of Neurobasal Medium with B27 supplements (GIBCO Life Technologies, Grand Island, N.Y.). […] Experimental treatments were performed on 7-to-9-day-old neuronal cultures in which there were approximately 5% contaminating glial cells.
Total cell extracts were prepared as described (Baeuerle and Baltimore, 1988, Cell 53:211-217). Briefly, cells were harvested, washed twice with ice-cold PBS and lysed for 30 min at 4° C. in Totex buffer (20 mM HEPES, pH 7.9, 350 mM NaC1, 20% glycerol, 1% NP-40, 1 mM MgC12, 0.5 mM EDTA, 0.1 mM EGTA, 5 mM DTT, 0.1% PMSF, 1% aprotinin, 4 μg/ml leupeptin). Samples were centrifuged at 14,000× g for 10 min and aliquots of supernatant were collected and stored at −70° C. until taken for assay. The protein content of the extract (supernatant) was measured by Bradford method (BIO-RAD Laboratories, Ercules, Calif., USA).
After 20 min at room temperature, reaction products were separated on a 7% non-denaturing polyacrylamide gel. Competition experiments were performed by incubating extracts with labeled oligonucleotide probe in the presence of 100-fold molar excess unlabeled NF-KB or CREB oligonucleotide. To characterize the NF-KB complexes, supershift assays were performed. Extracts were preincubated for 45 min at room temperature with antibodies recognizing either p50 or p65 sub-units of NF-κB (Santa Cruz Biotechnology, Santa Cruz, Calif.) or c-Fos (Oncogene Research Products, Cambridge, Mass.). The mixtures were further incubated with ^32P-labeled probe and resolved as described above. Radioactivity of dried gels was detected by exposure to Kodak X-Omat film and images on the developed film were scanned into a computer using a UMAX 1200s scanner. Densitometry was performed using Scion Image software (Scion Inc., Frederick, Md.). Paint Shop Pro software (JASC Inc. Minneapolis, Minn.) was used for preparation of the final figures.
(§3) The possible involvement of endoplasmic reticulum pools of intracellular calcium regulated by IP3 receptors in controlling basal levels of NF-κB was investigated using Xestospongin C (XeC) a specific membrane permeable modulator of IP3-mediated Ca^2+release (Gafni et al., 1997, Neuron 19:723-733; Hu et al., 1999, J. Biol. Chem. 274:33995-33998), and thapsigargin (Tg), a specific inhibitor of ER calcium/ATPase (Thastrup et al., 1990, Proc. Natl. Acad. Sci. USA 87:2466-2470; Davidson and Varhol, 1995, J. Biol. Chem. 270:11731-11734.). Cultured primary cortical neurons were treated with either 1 μM XeC, 100 nM Tg or vehicle for 6 h and protein extracts were analyzed for NF-κB binding activity by EMSA electrophoresis.

CREB [5] = experiment: EMSA of CREB binding activity in cultured primary cortical neurons; format: cell-based, rat
Protocol: Cerebral cortices were removed from embryonic day 18 Sprague-Dawley rats (Harlan, Indianapolis, Ind.). Cells were dissociated as described previously (Mattson et al., 1995, J. Neurochem. 65:1740-1751.) and were seeded into polyethyleneimine-coated 60 mm culture dishes containing Eagle's Minimum Essential Medium supplemented with 26 mM NaHCO3, 40 mM glucose, 20 mM KCl, 1 mM sodium pyruvate, 10% (v/v) heat-inactivated fetal bovine serum (Sigma, St. Louis, Mo.), and 0.001% gentamycin sulfate. After a 3-5 h incubation period to allow for cell attachment, the medium was replaced with 2 ml of Neurobasal Medium with B27 supplements (GIBCO Life Technologies, Grand Island, N.Y.). Previous observations have shown that greater than 80% of the cells that attach in the first few hours after plating will survive longer than 7 days in Neurobasal Medium with no additional neurotrophic factors. Experimental treatments were performed on 7-to-9-day-old neuronal cultures in which there were approximately 5% contaminating glial cells.
as §1, §2, §3

CC(=O)OCOC(=O)CN(CC(=O)OCOC(C)=O)c1ccccc1OCCOc1ccccc1N(CC(=O)OCOC(C)=O)CC(=O)OCOC(C)=O [BAPTA-AM]
NF-κB binding activity in cytoplasmic fraction (NF-κB [1]): had no affect

C1CCC[C@H]2CCCN3CC[C@H](CCCCCC[C@H]4CCCN5CC[C@H](CC1)O[C@H]45)O[C@H]23 [ArB, Araguspongine B]
block of IP3-mediated calcium release (IP3 receptor): potent blockers

[Ca+2] [calcium]
CREB binding activity in cytoplasmic fraction (CREB [2]): greatly enhanced
NF-κB binding activity in cytoplasmic fraction (NF-κB [1]): none of the calcium concentrations used increased NF-κB binding activity

O[C@@]12CCCCCC[C@H]3CCN4CCC[C@H](CCCCCC[C@H]5CCN(CCC1)[C@@H]2O5)[C@H]4O3 [XeD]
block of IP3-mediated calcium release (IP3 receptor): potent blockers

O=P(O)(O)O[C@@H]1[C@H](O)[C@H](O)[C@@H](OP(=O)(O)O)[C@H](OP(=O)(O)O)[C@H]1O [IP3, inositol-1,4,5 triphosphate, reference compound]
NF-κB stimulating properties of MSE from treated microsomes [3]: NF-κB stimulating properties similar to that seen with Tg

tumor necrosis factor α [TNFα, reference compound]
induction of NF-κB binding activity by the agent alone (NF-κB [4]): statistically significant (p<0.05) enhancement
binding activity of CREB, agent alone (CREB [5]; cortical neurons, XeC 30 min pretreatment, 100 ng/ml TNFα 6 h, FIG. 2a): neither TNFα nor XeC alone affected the binding activity of CREB

O[C@@]12CCCCCC[C@H]3CCN4CCC[C@@H](CCCCCC[C@H]5CCN(CCC1)[C@@H]2O5)[C@H]4O3 [DMXeB, demethylxestospongin B]
block of IP3-mediated calcium release (IP3 receptor): potent blockers

C/C=C(/C)C(=O)O[C@H]1C(C)=C2[C@H]([C@@H]1OC(=O)CCCCCCC)[C@@](C)(OC(C)=O)C[C@H](OC(=O)CCC)[C@@]1(O)[C@H]2OC(=O)[C@@]1(C)O [Tg, thapsigargin, reference compound]
induction of NF-κB binding activity by the agent alone (NF-κB [4]): Induction of NF-κB binding activity was observed
basal NF-κB binding activity relative to control levels (NF-κB [4]; cultured primary cortical neurons, 1 μM XeC or 100 nM Tg, EMSA): statistically significant (p<0.05) elevation
CREB binding activity (CREB [5]; cultured primary cortical neurons, 6 h, 1 μM XeC or 100 nM Tg, data not shown): slightly augmented CREB binding activity; however, this was not statistically significant
